Where “and” joins values, the source holds several entries; their conditions need not be identical. Equal values may be shown once. Inconclusive results and toxic doses are left out. Rule for the calls: active = survival T/C of 150% or more; inactive = T/C below 125% in these data.
Tested on: P388 leukemia ip, CD2F1 mice, survival T/C
Experiment: NCI In Vivo Anticancer Drug Screen. Data for tumor model P388 Leukemia (intraperitoneal) in CD2F1 (CDF1) mice
Settings: endpoint: median survival time, higher = longer survival
Method in brief: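 Mice carrying the transplanted tumor received test compound or vehicle. Survival was recorded in each group, and the value is the treated-group measurement divided by that of the vehicle-treated control group.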

[1] = dose: 50.0 mg/kg/injection, schedule: Q01DX005 (ip), vehicle: Klucel (hydroxypropylcellulose) (HPC)
[2] = dose: 100.0 mg/kg/injection, schedule: Q01DX005 (ip), vehicle: Klucel (hydroxypropylcellulose) (HPC)
[3] = dose: 200.0 mg/kg/injection, schedule: Q01DX005 (ip), vehicle: Klucel (hydroxypropylcellulose) (HPC)
[4] = dose: 32.0 mg/kg/injection, schedule: Q01DX009 (ip), vehicle: Klucel (hydroxypropylcellulose) (HPC)
[5] = dose: 100.0 mg/kg/injection, schedule: Q01DX001 (ip), vehicle: Klucel (hydroxypropylcellulose) (HPC)
[6] = dose: 200.0 mg/kg/injection, schedule: Q01DX001 (ip), vehicle: Klucel (hydroxypropylcellulose) (HPC)
[7] = dose: 50.0 mg/kg/injection, schedule: Q01DX001 (ip), vehicle: Klucel (hydroxypropylcellulose) (HPC)

Measured: T/C

CN1CCC(OC(=O)c2ccc3ncccc3c2)CC1
inactive: dose: 50.0 mg/kg/injection, schedule: Q04DX003 (ip), vehicle: saline 100 % of control | dose: 100.0 mg/kg/injection, schedule: Q04DX003 (ip), vehicle: saline 98 % of control

Cc1noc2c1N=C(c1ccccc1O)CC(c1ccccc1)C2 (centres undefined)
inactive: dose: 50.0 mg/kg/injection, schedule: Q01DX009 (ip), vehicle: Klucel (hydroxypropylcellulose) (HPC) 100 % of control | dose: 100.0 mg/kg/injection, schedule: Q01DX009 (ip), vehicle: Klucel (hydroxypropylcellulose) (HPC) 110 % of control | dose: 200.0 mg/kg/injection, schedule: Q01DX009 (ip), vehicle: Klucel (hydroxypropylcellulose) (HPC) 99 % of control

CCCCOCN(COCCCC)c1ccccc1
inactive: dose: 100.0 mg/kg/injection, schedule: Q01DX001 (ip), vehicle: saline with Tween-80 104 % of control | dose: 200.0 mg/kg/injection, schedule: Q01DX001 (ip), vehicle: saline with Tween-80 113 % of control | dose: 400.0 mg/kg/injection, schedule: Q01DX001 (ip), vehicle: saline with Tween-80 109 % of control

CN1CCN(N=Nc2ccccc2Cl)CC1
inactive: dose: 12.5 mg/kg/injection, schedule: Q01DX009 (ip), vehicle: saline 99 % of control | dose: 25.0 mg/kg/injection, schedule: Q01DX009 (ip), vehicle: saline 111 % of control | dose: 50.0 mg/kg/injection, schedule: Q01DX009 (ip), vehicle: saline 103 % of control and 98 % of control

O=c1c2ccccc2c(-c2ccc(N(CCCl)CCCl)cc2)cn1CCCl
inactive: dose: 25.0 mg/kg/injection, schedule: Q04DX003 (ip), vehicle: Klucel (hydroxypropylcellulose) (HPC) 100 % of control | dose: 50.0 mg/kg/injection, schedule: Q04DX003 (ip), vehicle: Klucel (hydroxypropylcellulose) (HPC) 114 % of control | dose: 100.0 mg/kg/injection, schedule: Q04DX003 (ip), vehicle: Klucel (hydroxypropylcellulose) (HPC) 107 % of control | dose: 200.0 mg/kg/injection, schedule: Q04DX003 (ip), vehicle: Klucel (hydroxypropylcellulose) (HPC) 115 % of control | dose: 400.0 mg/kg/injection, schedule: Q04DX003 (ip), vehicle: Klucel (hydroxypropylcellulose) (HPC) 100 % of control

COc1ccc(C(C)c2cc3c(cc2OC)OCO3)cc1C (centres undefined)
inactive: dose: 25.0 mg/kg/injection, schedule: Q01DX005 (ip), vehicle: Klucel (hydroxypropylcellulose) (HPC) 104 % of control and 105 % of control | [1] 100 % of control and 109 % of control and 120 % of control | [2] 98 % of control and 105 % of control and 111 % of control | [3] 100 % of control and 110 % of control and 120 % of control | dose: 400.0 mg/kg/injection, schedule: Q01DX005 (ip), vehicle: Klucel (hydroxypropylcellulose) (HPC) 100 % of control

N#CC(=C1C=CC(=NO)C=C1)c1ccc(Cl)cc1
inactive: dose: 50.0 mg/kg/injection, schedule: Q04DX003 (ip), vehicle: saline with Tween-80 91 % of control | dose: 100.0 mg/kg/injection, schedule: Q04DX003 (ip), vehicle: saline with Tween-80 100 % of control and 92 % of control | dose: 200.0 mg/kg/injection, schedule: Q04DX003 (ip), vehicle: saline with Tween-80 98 % of control and 105 % of control | dose: 400.0 mg/kg/injection, schedule: Q04DX003 (ip), vehicle: saline with Tween-80 117 % of control

C=C(C)C1CCC2(C)CC3C(=C)CC(O)C(O)C3(C)CCC12 (centres undefined)
inactive: dose: 4.0 mg/kg/injection, schedule: Q01DX009 (ip), vehicle: Klucel (hydroxypropylcellulose) (HPC) 104 % of control | dose: 8.0 mg/kg/injection, schedule: Q01DX009 (ip), vehicle: Klucel (hydroxypropylcellulose) (HPC) 101 % of control | dose: 16.0 mg/kg/injection, schedule: Q01DX009 (ip), vehicle: Klucel (hydroxypropylcellulose) (HPC) 101 % of control | [4] 104 % of control

COc1ccc2c(c1O)-c1c(OC)c(O)cc3c1C(C2)NCC3 (centres undefined)
inactive: [4] 96 % of control | dose: 64.0 mg/kg/injection, schedule: Q01DX009 (ip), vehicle: Klucel (hydroxypropylcellulose) (HPC) 93 % of control | dose: 128.0 mg/kg/injection, schedule: Q01DX009 (ip), vehicle: Klucel (hydroxypropylcellulose) (HPC) 100 % of control | dose: 256.0 mg/kg/injection, schedule: Q01DX009 (ip), vehicle: Klucel (hydroxypropylcellulose) (HPC) 102 % of control

O=c1[nH]c(=O)n(C2OC(CF)C(O)C2O)cc1Br (centres undefined)
inactive: [1] 96 % of control | [2] 96 % of control | [3] 98 % of control

CC(O)c1cc2c(cc1Br)OCO2 (centres undefined)
inactive: [5] 105 % of control | [6] 104 % of control | dose: 400.0 mg/kg/injection, schedule: Q01DX001 (ip), vehicle: Klucel (hydroxypropylcellulose) (HPC) 104 % of control

COC(=O)C/C(C(=O)OC)=C1\CCC2=C1N1CCCC1C2(CC(=O)OC)C(=O)OC (centres undefined)
inactive: dose: 12.5 mg/kg/injection, schedule: Q01DX001 (ip), vehicle: Klucel (hydroxypropylcellulose) (HPC) 100 % of control | dose: 25.0 mg/kg/injection, schedule: Q01DX001 (ip), vehicle: Klucel (hydroxypropylcellulose) (HPC) 99 % of control | [7] 99 % of control

CC(C)=CCc1c(O)ccc(C(=O)C2C(c3c(O)cc(-c4cc5ccc(O)cc5o4)cc3O)C=C(C)CC2c2ccc(O)cc2O)c1O (centres undefined)
inactive: dose: 3.75 mg/kg/injection, schedule: Q01DX005 (ip), vehicle: water 94 % of control | dose: 7.5 mg/kg/injection, schedule: Q01DX005 (ip), vehicle: water 103 % of control | dose: 15.0 mg/kg/injection, schedule: Q01DX005 (ip), vehicle: water 99 % of control | dose: 30.0 mg/kg/injection, schedule: Q01DX005 (ip), vehicle: water 110 % of control | dose: 60.0 mg/kg/injection, schedule: Q01DX005 (ip), vehicle: water 113 % of control

CCCCCCCC/C=C\CCCCCCCC(=O)OCCCCCCCCCCCC
inactive: dose: 6.25 mg/kg/injection, schedule: Q01DX012 (ip), vehicle: saline with Tween-80 100 % of control | dose: 12.5 mg/kg/injection, schedule: Q01DX012 (ip), vehicle: saline with Tween-80 104 % of control | dose: 50.0 mg/kg/injection, schedule: Q01DX012 (ip), vehicle: saline with Tween-80 100 % of control | dose: 100.0 mg/kg/injection, schedule: Q01DX012 (ip), vehicle: saline with Tween-80 98 % of control | dose: 200.0 mg/kg/injection, schedule: Q01DX012 (ip), vehicle: saline with Tween-80 101 % of control | dose: 500.0 mg/kg/injection, schedule: Q01DX012 (ip), vehicle: saline with Tween-80 106 % of control | dose: 872.0 mg/kg/injection, schedule: Q01DX012 (ip), vehicle: saline with Tween-80 97 % of control

CN1C(=O)CC(=O)N(C)P1(=O)Oc1ccccc1
inactive: dose: 100.0 mg/kg/injection, schedule: Q04DX002 (ip), vehicle: saline 101 % of control | dose: 200.0 mg/kg/injection, schedule: Q04DX002 (ip), vehicle: saline 101 % of control | dose: 400.0 mg/kg/injection, schedule: Q04DX002 (ip), vehicle: saline 101 % of control

CC(=O)Oc1ccc(OC(C)=O)c(CBr)c1CBr
inactive: dose: 25.0 mg/kg/injection, schedule: Q04DX002 (ip), vehicle: Klucel (hydroxypropylcellulose) (HPC) 100 % of control | dose: 50.0 mg/kg/injection, schedule: Q04DX002 (ip), vehicle: Klucel (hydroxypropylcellulose) (HPC) 95 % of control | dose: 100.0 mg/kg/injection, schedule: Q04DX002 (ip), vehicle: Klucel (hydroxypropylcellulose) (HPC) 87 % of control and 93 % of control

Cc1[nH]c2ccc(CN)cc2c1CC(N)C(=O)O (centres undefined)
inactive: dose: 100.0 mg/kg/injection, schedule: Q01DX001 (ip), vehicle: saline 110 % of control | dose: 200.0 mg/kg/injection, schedule: Q01DX001 (ip), vehicle: saline 104 % of control | dose: 400.0 mg/kg/injection, schedule: Q01DX001 (ip), vehicle: saline 107 % of control

CCOC(=O)/C(C#N)=C/c1ccc(C)o1
inactive: dose: 15.0 mg/kg/injection, schedule: Q01DX005 (ip), vehicle: saline with Tween-80 99 % of control | dose: 30.0 mg/kg/injection, schedule: Q01DX005 (ip), vehicle: saline with Tween-80 100 % of control | dose: 60.0 mg/kg/injection, schedule: Q01DX005 (ip), vehicle: saline with Tween-80 100 % of control and 101 % of control

CC(=O)OCN(C)N=Nc1ccc(C#N)cc1
inactive: dose: 60.0 mg/kg/injection, schedule: Q01DX005 (ip), vehicle: Klucel (hydroxypropylcellulose) (HPC) 104 % of control | dose: 120.0 mg/kg/injection, schedule: Q01DX005 (ip), vehicle: Klucel (hydroxypropylcellulose) (HPC) 108 % of control

CCOC(=O)C(N=Nc1ccccc1)/N=N\c1nn[nH]n1 (centres undefined)
inactive: [7] 91 % of control | [5] 91 % of control | [6] 91 % of control

CN1C(c2ccccc2)CC(=NOCc2ccccc2)CC1c1ccccc1 (centres undefined)
inactive: dose: 50.0 mg/kg/injection, schedule: Q01DX005 (ip), vehicle: saline with Tween-80 98 % of control | dose: 100.0 mg/kg/injection, schedule: Q01DX005 (ip), vehicle: saline with Tween-80 96 % of control | dose: 200.0 mg/kg/injection, schedule: Q01DX005 (ip), vehicle: saline with Tween-80 89 % of control

Source: PubChem BioAssay AID330 (DTP/NCI, 2004)
